Reference: patent US20150005288A1, “SUBSTITUTED PHENYLIMIDAZOPYRAZOLES AND USE THEREOF” (Bayer Intellectual Property GmbH, priority 2012, published 2015)
pIC50: −log10 of the molar value.

Key:
[1] = molecular target: T1, endogenous Tie2 receptor (Homo sapiens, UniProt Q02763); assay: Tie2-pTyr-ELISA: autophosphorylation of endogenous Tie2 receptor in HUVEC; type: cell-based; settings: autophosphorylation elevated by sodium orthovanadate (4 mM), Tie2/phosphotyrosine sandwich ELISA, from 2-7 independent measurements
T1 construct: the endogenous Tie2 receptor; host or cells: HUVEC (human umbilical vein endothelial cells)
T1 sequence (Q02763 23-1124): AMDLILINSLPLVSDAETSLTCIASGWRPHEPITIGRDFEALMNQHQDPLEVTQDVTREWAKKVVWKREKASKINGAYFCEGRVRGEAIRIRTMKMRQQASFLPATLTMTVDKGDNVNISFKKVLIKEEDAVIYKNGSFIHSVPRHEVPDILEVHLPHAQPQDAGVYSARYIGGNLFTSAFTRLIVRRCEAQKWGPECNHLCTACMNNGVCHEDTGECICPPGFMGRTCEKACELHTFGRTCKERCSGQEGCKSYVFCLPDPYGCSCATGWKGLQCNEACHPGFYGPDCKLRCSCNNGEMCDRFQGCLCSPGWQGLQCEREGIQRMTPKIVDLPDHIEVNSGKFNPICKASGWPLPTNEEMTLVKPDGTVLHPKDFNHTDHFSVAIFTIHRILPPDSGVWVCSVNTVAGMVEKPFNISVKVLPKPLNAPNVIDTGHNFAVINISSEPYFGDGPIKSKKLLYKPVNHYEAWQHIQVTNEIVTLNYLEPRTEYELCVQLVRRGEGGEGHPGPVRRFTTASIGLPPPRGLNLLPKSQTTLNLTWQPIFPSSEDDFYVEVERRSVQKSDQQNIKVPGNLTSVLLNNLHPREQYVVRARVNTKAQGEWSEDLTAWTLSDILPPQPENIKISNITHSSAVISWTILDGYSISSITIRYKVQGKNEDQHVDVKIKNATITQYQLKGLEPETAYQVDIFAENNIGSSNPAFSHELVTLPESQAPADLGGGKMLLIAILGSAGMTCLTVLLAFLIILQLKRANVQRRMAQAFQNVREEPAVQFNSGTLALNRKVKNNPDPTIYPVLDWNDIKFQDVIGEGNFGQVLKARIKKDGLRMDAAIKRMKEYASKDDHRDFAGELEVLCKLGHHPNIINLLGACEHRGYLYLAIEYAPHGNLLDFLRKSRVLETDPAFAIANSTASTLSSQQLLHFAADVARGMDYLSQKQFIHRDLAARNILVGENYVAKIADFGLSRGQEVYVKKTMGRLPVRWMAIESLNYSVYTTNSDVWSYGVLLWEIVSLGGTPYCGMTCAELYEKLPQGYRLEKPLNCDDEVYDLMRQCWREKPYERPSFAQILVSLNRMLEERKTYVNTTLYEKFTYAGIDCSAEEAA
Experimental: The cellular activity of the compounds according to the invention as Tie2 kinase inhibitors was determined in human endothelial cells (HUVEC) by measuring the inhibition of the autophosphorylation, elevated by treatment with sodium orthovanadate, of the endogenous Tie2 receptor by means of a Tie2/phosphotyrosine sandwich ELISA.
Human endothelial cells (human umbilical vein endothelial cells, HUVEC) were obtained from Cellsystems (FC-0003), cultured in Vasculife VEGF complete medium (Cellsystems, LL-1020) with 2% foetal calf serum (FCS) at 37° C./5% CO2 and used for Tie2-ELISA measurements up to passage 8.
HUVEC were plated in a culture volume of 100 μl of Vasculife VEGF complete medium at a cell density of 30 000 cells per well in transparent collagen-coated 96-well cell culture plates (Falcon, #353075) and incubated in an incubation cabinet at 37° C./5% CO2 overnight. The test substances dissolved in DMSO were used to prepare in each case one dilution series in Vasculife VEGF low-serum medium [basal medium with LifeFactors (Cellsystems, LM-0002), without FCS, with 0.1% BSA] without sodium orthovanadate and one dilution series in Vasculife VEGF low-serum-medium with 8 mM sodium orthovanadate in the desired concentrations in the range from 10 pM to 10 μM, the final DMSO concentration being 1%. After removal of the complete medium, 100 μl per well of the dilute substances in low-serum medium without sodium orthovanadate were pipetted onto the cells, and the plates were incubated in an incubation cabinet at 37° C./5% CO2 for 10 min. A further 100 μl of the same substance dilution in low-serum medium with 8 mM sodium orthovanadate were then pipetted into the respective well and the cells were incubated in a volume of now 200 μl in the presence of 4 mM sodium orthovanadate at the desired substance concentration in an incubation cabinet at 37° C./5% CO2 for a further 20 min. The cell supernatant of the plates was then removed and the cells were washed once with 250 μl per well of cold PBS which contained 4 mM sodium orthovanadate. 120 μl of Duschl lysis buffer [50 mM HEPES pH 7.2, 150 mM NaCl, 1 mM MgCl2, 10% glycerol, 1.5% Triton X-100, 4 mM sodium orthovanadate, 250 μl S-PIC phosphatase inhibitor cocktail 2 (Sigma, P5726) and 1 tablet of Complete proteinase inhibitor mixture (Roche, #1836145) per 10 ml] were then added to the cells in each well. The plates were shaken briefly and then incubated on ice for 20 min, and the lysates in the cell culture plates were then frozen at −80° C. for at least 30 min.
For measuring the autophosphorylation of the endogenous Tie2 receptor in the cell lysates prepared, a self-prepared anti-Tie2 antibody directed against the N-terminus of the Tie-2 receptor (1.09 mg/ml) and an HRP-coupled anti-phosphotyrosine antibody (Sigma, A4595, clone pY-20) were used. White 96-well ELISA plates (Lumitrac600, Greiner, #655074) were incubated with 100 μl per well of a 1:1000 dilution of the anti-Tie2 antibody in coating buffer [15 mM Na2CO3, 35 mM NaHCO3, pH 9.6] with shaking at 4° C. overnight. The coated ELISA plates were washed three times with 250 μl PBST buffer [0.1% Tween-20 in PBS], the wells were blocked with 250 μl 3% BSA in PBST buffer with shaking at RT for 1-6 h and washed three more times with 250 μl PBST buffer. From the cell lysate plates thawed in the fridge, in each case 100 μl of lysate were transferred into the coated wells of the ELISA plates, and the plates were incubated with shaking at 4° C. overnight. The plates were washed three times with in each case 250 μl of PBST buffer, and 100 μl of a 1:5000 dilution of the anti-phosphotyrosine HRP antibody in 3% Prionex (Calbiochem, #529600) in PBST were then pipetted into each well and the plates were incubated with shaking and protected from light at 4° C. overnight. […]

[2] = molecular target: T2, intracellular domain of human Tie2 (GST fusion protein) (Homo sapiens, UniProt Q02763); assay: Tie2 kinase assay (Tie2-TR-FRET); type: biochemical; settings: ATP concentration 1 mM, in some cases means of several independent determinations
T2 construct: intracellular domain of human Tie2 (amino acids 776-1124); made in house; host or cells: Baculovirus-infected insect cells (Hi5)
T2 sequence (Q02763 776-1124): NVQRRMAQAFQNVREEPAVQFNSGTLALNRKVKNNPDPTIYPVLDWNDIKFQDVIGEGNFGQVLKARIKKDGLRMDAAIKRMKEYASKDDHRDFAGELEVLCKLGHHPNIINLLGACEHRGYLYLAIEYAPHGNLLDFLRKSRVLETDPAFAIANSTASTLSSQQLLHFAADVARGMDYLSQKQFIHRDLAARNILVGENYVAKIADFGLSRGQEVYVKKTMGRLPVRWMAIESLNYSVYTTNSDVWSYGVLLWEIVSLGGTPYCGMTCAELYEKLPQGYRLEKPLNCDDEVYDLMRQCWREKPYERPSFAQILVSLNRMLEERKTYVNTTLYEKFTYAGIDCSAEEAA
Summary of the method: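 GST fusion of human Tie2 intracellular domain (aa 776-1124, Hi5-expressed), ~30 ng/ml, pre-incubated 15 min with compound, then 1 mM ATP and 1 μM biotinylated peptide, 60 min at 22 °C, pH 7. TR-FRET (Eu anti-phosphotyrosine/streptavidin-XL665, 665/620 nm ratio). […] 20 μM–0.073 nM in duplicate; IC50 by 4-parameter fit.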

| Compound | pIC50 [1] | pIC50 [2] |
| --- | --- | --- |
| Cc1cc(C)c(-n2ccn3nc(-c4cccnc4)cc23)cc1NC(=O)c1cc(C#N)nc(C(C)(C)C)c1 [Example 116, 2-tert-Butyl-6-cyano-N-{2,4-dimethyl-5-[6-(pyridin-3-yl)-1H-imidazo[1,2-b]pyrazol-1-yl]phenyl}-isonicotinamide] | 8.54 | 9.30 |
| Cc1cc(Cl)c(-n2ccn3nc(-c4cccnc4)cc23)cc1NC(=O)c1cccc(S(F)(F)(F)(F)F)c1 [Example 157, N-{4-Chloro-2-methyl-5-[6-(pyridin-3-yl)-1H-imidazo[1,2-b]pyrazol-1-yl]phenyl}-3-(pentafluoro-λ^6-sulphanyl)benzamide] | 9.00 | 9.30 |
| Cc1ccc(NC(=O)c2cc(C#N)cc(S(F)(F)(F)(F)F)c2)cc1-n1ccn2nc(-c3cnccn3)cc12 [Example 162, 3-Cyano-N-{4-methyl-3-[6-(pyrazin-2-yl)-1H-imidazo[1,2-b]pyrazol-1-yl]phenyl}-5-(pentafluoro-λ^6-sulphanyl)benzamide] | 8.05 | 7.55 |
